{"source": "PubChem BioAssay AID1259409", "about": "(Chemical Carcinogenesis Research Information System (CCRIS), 2018)", "origin": "cited, not measured here", "test_system": "rodent chemically induced tumor inhibition, incidence and multiplicity", "test": "CCRIS tumor inhibitor studies", "note": "Where “and” joins values, the source holds several entries; their conditions need not be identical. Equal entries are not always repeated.", "data": [{"smiles": "O=C1C=CC(=O)c2c(O)cccc21", "values": [{"measurement": "tumour outcome (control, treated, inhibition, significance)", "setting": "Carcinogen: AZOXYMETHANE [25843-45-2], Dose [Inhibitor]: 200 PPM IN DIET FOR 4 WK BEGINNING 1 WK PRIOR TO FIRST CARCINOGEN DOSE (STUDY DURATION: 35 WK), Route [Inhibitor]: ORAL, Species: RAT, Strain/Sex: F344/MALE, Target Tissue: Type of Lesion: COLON: ADENOMA, Dose [Carcinogen]: 15 MG/KG BW 1X/WK FOR 3 WK (STUDY DURATION: 35 WK), Promoter: NONE", "result": "6/28 (21%), 4/30 (13%), 38%, not significant"}, {"measurement": "tumour outcome (control, treated, inhibition, significance)", "setting": "Carcinogen: AZOXYMETHANE [25843-45-2], Dose [Inhibitor]: 200 PPM IN DIET FOR 4 WK BEGINNING 1 WK PRIOR TO FIRST CARCINOGEN DOSE (STUDY DURATION: 35 WK), Route [Inhibitor]: ORAL, Species: RAT, Strain/Sex: F344/MALE, Target Tissue: Type of Lesion: COLON: CARCINOMA, Dose [Carcinogen]: 15 MG/KG BW 1X/WK FOR 3 WK (STUDY DURATION: 35 WK), Promoter: NONE", "result": "8/28 (29%), 11/30 (37%), -28%, not significant"}, {"measurement": "tumour outcome (control, treated, inhibition, significance)", "setting": "Carcinogen: AZOXYMETHANE [25843-45-2], Dose [Inhibitor]: 200 PPM IN DIET FOR 4 WK BEGINNING 1 WK PRIOR TO FIRST CARCINOGEN DOSE (STUDY DURATION: 35 WK), Route [Inhibitor]: ORAL, Species: RAT, Strain/Sex: F344/MALE, Target Tissue: Type of Lesion: SMALL INTESTINE: CARCINOMA, Dose [Carcinogen]: 15 MG/KG BW 1X/WK FOR 3 WK (STUDY DURATION: 35 WK), Promoter: NONE", "result": "7/28 (25%), 2/30 (7%), 72%, p<0.05"}]}, {"smiles": "CO[C@@H]1[C@H](OC(=O)NC(=O)CCl)CC[C@]2(CO2)[C@H]1[C@@]1(C)O[C@@H]1CC=C(C)C", "values": [{"measurement": "tumour outcome (control, treated, inhibition, significance)", "setting": "Carcinogen: N-METHYL-N-NITROSOUREA, 684-93-5, Dose [Inhibitor]: 0, 1 UG/ML IN URINE 1/WK FOR 10 WK INSTILLED INTO HETEROTROPICALLY TRANSPLANTED BLADDER BEGINNING 21 WK POST CARCINOGEN, Route [Inhibitor]: INTRAVESICULAR, Species: RAT, Strain/Sex: F344/MALE, Target Tissue: Type of Lesion: BLADDER: TUMOR, Dose [Carcinogen]: 0.25 MG IN 0.5 ML OF 0.9% SALINE INSTILLED INTO HETEROTROPICALLY TRANSPLANTED BLADDER ONCE, Promoter: NONE USED", "result": "24/38 (63%), 9/24 (38%), 40%, p=0.08"}, {"measurement": "tumour outcome (control, treated, inhibition, significance)", "setting": "Carcinogen: N-METHYL-N-NITROSOUREA, 684-93-5, Dose [Inhibitor]: 0, 1 UG/ML IN URINE 1/WK FOR 27 WK INSTILLED INTO HETEROTROPICALLY TRANSPLANTED BLADDER BEGINNING 4 WK POST CARCINOGEN D, Route [Inhibitor]: INTRAVESICULAR, Species: RAT, Strain/Sex: F344/MALE, Target Tissue: Type of Lesion: BLADDER: TUMOR, Dose [Carcinogen]: 0.25 MG IN 0.5 ML OF 0.9% SALINE INSTILLED INTO HETEROTROPICALLY TRANSPLANTED BLADDER ONCE, Promoter: NONE USED", "result": "24/38 (63%), 14/37 (38%), 40%, p<0.05"}]}, {"smiles": "CC1(C)OC(=O)C=C[C@]2(C)[C@H]3CC[C@@]4(C)[C@H](c5ccoc5)OC(=O)[C@H]5O[C@]54[C@]3(C)C(=O)C[C@@H]12", "values": [{"measurement": "tumour outcome (control, treated, inhibition, significance)", "setting": "Carcinogen: AZOXYMETHANE, 25843-45-2, Dose [Inhibitor]: 0, 0.05% IN DIET FOR 35 WK BEGINNING 1 WK POST CARCINOGEN LAST DOSE (STUDY DURATION: 38 WK), Route [Inhibitor]: ORAL, Species: RAT, Strain/Sex: F344/MALE, Target Tissue: Type of Lesion: COLON: ADENOCARCINOMA, Dose [Carcinogen]: 20 MG/KG BW 1/WK FOR 2 WK", "result": "18/25 (72%), 2/16 (13%), 82%, p=0.0002 and 18/25 (72%), 4/16 (25%), 65%, p=0.004"}]}, {"smiles": "CC(C)(C)C1=CC(=O)C=C(C(C)(C)C)C1=O", "values": [{"measurement": "tumour outcome (control, treated, inhibition, significance)", "setting": "Carcinogen: 7,12-DIMETHYLBENZ[A]ANTHRACENE, 57-97-6, Dose [Inhibitor]: 0, 200 MG/KG BW/D FOR 3 WK BEGINNING 2 WK PRIOR TO CARCINOGEN DOSE (STUDY DURATION: 24 WK), Route [Inhibitor]: INTRAPERITONEAL, Species: RAT, Strain/Sex: SPRAGUE-DAWLEY/FEMALE, Target Tissue: Type of Lesion: MAMMARY GLAND: TUMOR, Dose [Carcinogen]: 33.3 MG/KG BW IN 0.25 ML CORN OIL ONCE AT 50 D OF AGE, Promoter: NONE USED", "result": "91%, 68%, 25%, not calculated"}]}, {"smiles": "C[N+](C)(C)CC(=O)O", "values": [{"measurement": "tumour outcome (control, treated, inhibition, significance)", "setting": "Carcinogen: ETHIONINE, 13073-35-3, Dose [Inhibitor]: 5.2 MMOL/100 G DIET DAILY FOR 8 MO ADMINISTERED SIMULTANEOUSLY WITH CARCINOGEN FOLLOWED BY 4 MO ON BASAL DIET (STUDY DUR, Route [Inhibitor]: ORAL, Species: RAT, Strain/Sex: WISTAR/MALE, Target Tissue: Type of Lesion: LIVER: CARCINOMA, Dose [Carcinogen]: 0.25% OF DIET DAILY FOR 8 MO, Promoter: NONE USED", "result": "8/8 (100%), 1/10 (10%), 90%, not calculated"}]}, {"smiles": "C=C1C(=O)O[C@@H]2/C=C(\\C)CCC=C(C)CC[C@@H]12", "values": [{"measurement": "tumour outcome (control, treated, inhibition, significance)", "setting": "Carcinogen: AZOXYMETHANE, 25843-45-2, Dose [Inhibitor]: 0, 0.02% IN DIET FOR 4 WK BEGINNING AT TIME OF CARCINOGEN TREATMENT (STUDY DURATION: 33 WK), Route [Inhibitor]: ORAL, Species: RAT, Strain/Sex: F344/MALE, Target Tissue: Type of Lesion: INTESTINE: ADENOMA OR ADENOCARCINOMA, Dose [Carcinogen]: 15 MG/KG BW 1/WK FOR 3 WK, Promoter: NONE USED", "result": "15/30 (50%), 5/29 (17%), 66%, p<0.05"}]}, {"smiles": "O=C1C[C@@H](c2ccc(O)cc2)Oc2cc(O)cc(O)c21", "values": [{"measurement": "tumour outcome (control, treated, inhibition, significance)", "setting": "Carcinogen: 7,12-DIMETHYLBENZ[A]ANTHRACENE, 57-97-6, Dose [Inhibitor]: 100 UG IN 0.2 ML ACETONE ONCE 5 MIN BEFORE CARCINOGEN TREATMENT (STUDY DURATION: 31 WK), Route [Inhibitor]: DERMAL, Species: MOUSE, Strain/Sex: CD-1/FEMALE, Target Tissue: Type of Lesion: SKIN: PAPILLOMA, Dose [Carcinogen]: 10 NMOL IN 0.2 ML ACETONE ONCE, Promoter: 12-O-TETRADECANOYLPHORBOL-13-ACETATE, 16561-29-8", "result": "87%, 94%, -8%, not calculated"}, {"measurement": "outcome", "setting": "Carcinogen: N-Methyl-N'-nitro-N-nitrosoguanidine (70-25-7) and saturated sodium chloride (7647-14-5), Dose [Inhibitor]: 200 mg/kg bw dissolved in corn oil for 20 wk from first dose of MNNG + NaCl and from the 6th wk of MNNG + NaCl induction, Route [Inhibitor]: Gavage, Species: Rat, Strain/Sex: Wistar/Male, Target Tissue: Type of Lesion: Stomach, Dose [Carcinogen]: 200 mg/kg at days 0 and 14 (MNNG) and 1 ml/rat 3 days for 4 wk (NaCl); study duration 20 wk), Promoter: None", "result": "0 (0) in negative controls; 6 (100) in positive controls; 0 (0) simultaneous tre"}]}, {"smiles": "CCC(C)C1NC(=O)C(C(C)=O)=C1O", "note": "(configuration not stated)", "values": [{"measurement": "tumour outcome (control, treated, inhibition, significance)", "setting": "Carcinogen: 7,12-DIMETHYLBENZ[A]ANTHRACENE, 57-97-6, Dose [Inhibitor]: 0, 250 UG 3/WK APPLIED 30 MIN PRIOR TO EACH PROMOTER DOSE FOR 140 D (STUDY DURATION: 140 D), Route [Inhibitor]: DERMAL, Species: MOUSE, Strain/Sex: SWISS/FEMALE, Target Tissue: Type of Lesion: SKIN: TUMOR, Dose [Carcinogen]: 200 NMOL IN 100 µL ACETONE ONCE, Promoter: 12-O-TETRADECANOYLPHORBOL-13-ACETATE, 16561-29-8", "result": "100%, 70%, 30%, not calculated"}]}, {"smiles": "CN=C(NC#N)NCCSCc1nc[nH]c1C", "values": [{"measurement": "tumour outcome (control, treated, inhibition, significance)", "setting": "Carcinogen: 7,12-DIMETHYLBENZ[A]ANTHRACENE, 57-97-6, Dose [Inhibitor]: 0, 10 MG A WK IN DRINKING WATER BEGINNING 1 WK POST CARCINOGEN DOSE AND CONTINUING FOR DURATION OF STUDY (STUDY DURATION, Route [Inhibitor]: ORAL, Species: MOUSE, Strain/Sex: SENCAR/MALE, Target Tissue: Type of Lesion: SKIN: PAPILLOMA, Dose [Carcinogen]: 100 NMOL IN 200 µL ACETONE ONCE, Promoter: 12-O-TETRADECANOYLPHORBOL-13-ACETATE, 16561-29-8", "result": "95%, 100%, -5%, not calculated"}, {"measurement": "tumour outcome (control, treated, inhibition, significance)", "setting": "Carcinogen: N-METHYL-N'-NITRO-N-NITROSOGUANIDINE, 70-25-7, Dose [Inhibitor]: 10 MG/KG BW IN DEPOT FORM 1/2 D BEGINNING 1 WK POST LAST CARCINOGEN DOSE FOR DURATION OF STUDY (STUDY DURATION: 52 WK), Route [Inhibitor]: SUBCUTANEOUS, Species: RAT, Strain/Sex: WISTAR/MALE, Target Tissue: Type of Lesion: STOMACH: ADENOCARCINOMA, Dose [Carcinogen]: 50 UG/ML IN DRINKING WATER FOR 25 WK, Promoter: NONE USED", "result": "12/19 (63%), 13/19 (68%), -8%, not calculated"}, {"measurement": "tumour outcome (control, treated, inhibition, significance)", "setting": "Carcinogen: N-METHYL-N'-NITRO-N-NITROSOGUANIDINE, 70-25-7, Dose [Inhibitor]: 20 MG/KG BW IN DEPOT FORM 1/2 D BEGINNING 1 WK POST LAST CARCINOGEN DOSE FOR DURATION OF STUDY (STUDY DURATION: 52 WK), Route [Inhibitor]: SUBCUTANEOUS, Species: RAT, Strain/Sex: WISTAR/MALE, Target Tissue: Type of Lesion: STOMACH: ADENOCARCINOMA, Dose [Carcinogen]: 50 UG/ML IN DRINKING WATER FOR 25 WK, Promoter: NONE USED", "result": "12/19 (63%), 11/19 (58%), 8%, not calculated"}]}, {"smiles": "CCN1CCCC1CNC(=O)c1cc(S(N)(=O)=O)ccc1OC", "note": "(configuration not stated)", "values": [{"measurement": "tumour outcome (control, treated, inhibition, significance)", "setting": "Carcinogen: N-METHYL-N'-NITRO-N-NITROSOGUANIDINE, 70-25-7, Dose [Inhibitor]: 0, 30 MG/KG 1/2 D BEGINNING 1 WK POST CARCINOGEN TREATMENT AND CONTINUING FOR DURATION OF STUDY (STUDY DURATION: 52 WK), Route [Inhibitor]: SUBCUTANEOUS, Species: RAT, Strain/Sex: WISTAR/MALE, Target Tissue: Type of Lesion: STOMACH: ADENOCARCINOMA, Dose [Carcinogen]: 50 UG/ML IN DRINKING WATER FOR 25 WK, Promoter: NONE USED", "result": "13/18 (72%), 11/18 (61%), 15%, not significant"}, {"measurement": "tumour outcome (control, treated, inhibition, significance)", "setting": "Carcinogen: N-METHYL-N'-NITRO-N-NITROSOGUANIDINE, 70-25-7, Dose [Inhibitor]: 0, 30 MG/KG IN 2 ML/KG 0.9% NACL 1/2 D FOR STUDY DURATION BEGINNING POST CARCINOGEN TREATMENT (STUDY DURATION: 52 WK), Route [Inhibitor]: SUBCUTANEOUS, Species: RAT, Strain/Sex: WISTAR/MALE, Target Tissue: Type of Lesion: GLANDULAR STOMACH: ADENOCARCINOMA, Dose [Carcinogen]: 50 UG/ML DRINKING WATER FOR 25 WK", "result": "13/18 (72%), 11/18 (61%), 15%, not significant"}]}]}
